Data reported in patent EP2792359A1, “Treatment of L-DOPA-induced dyskinesia with OPC-14523 or OPC-34712” (Merz Pharma GmbH & Co. KGaA, priority 2013, dated 2014).

Legend:
[1] = tested on: 6-OHDA-lesioned rats; assay: L-DOPA induced dyskinesia (AIM scores) in the 6-OHDA-lesioned rat model of Parkinson's disease; type: in vivo, Sprague Dawley rats; conditions: for reduction of LID: comparators, data not shown, dose not given
[2] = biological target: T1, 5-HT2B (Homo sapiens, UniProt P41595); assay: 5-HT2B IP-One HTRF assay (Euroscreen FAST-0506I); type: cell-based
T1 construct: host or cells: CHO-K1
Method: B. 5-HT2B assay (performed at Euroscreen, order no.: FAST-0506I):
The 5-HT2B [00136] IP-One HTRF assay was conducted with recombinant cell lines, receptor accession numbers, cellular background and reference compounds are shown in Table 1.
Cells expressing human recombinant 5-HT2B (FAST-506I) grown to mid-log phase in culture media without antibiotics will be detached with PBS-EDTA, centrifuged and resuspended in medium without antibiotics buffer. 20,000 cells will be distributed in a 96 well plate and incubated overnight at 37°C with 5% CO2.
For agonist testing, the medium will be removed and 20 µl of assay buffer plus 20 µl of test compound or reference agonist will be added in each well. The plate will be incubated for 60 min at 37°C with 5% CO2.
For antagonist testing, 20 µl of test compound or reference antagonist is added and the plate is incubated for 15 min. at 37°C in a humidified atmosphere of 95% air with 5% CO2, then 20 µl of reference agonist at a final concentration corresponding to the historical EC80 is added. […]
IP1-D2 reagent and anti-IP1 cryptate reagents will be then dispensed in the wells and DeltaF percentage values will be then calculated following the manufacturer (CisBio) recommendations. […]
(§1) Dose-response data from test compounds were analyzed with XLfit (IDBS) software using nonlinear regression applied to a sigmoidal dose-response model (4 Parameter Fit).

[3] = biological target: T2, Muscarinic acetylcholine receptors M2 (Homo sapiens, UniProt P08172); conditions: cited from earlier work
T2 sequence (P08172 1-466): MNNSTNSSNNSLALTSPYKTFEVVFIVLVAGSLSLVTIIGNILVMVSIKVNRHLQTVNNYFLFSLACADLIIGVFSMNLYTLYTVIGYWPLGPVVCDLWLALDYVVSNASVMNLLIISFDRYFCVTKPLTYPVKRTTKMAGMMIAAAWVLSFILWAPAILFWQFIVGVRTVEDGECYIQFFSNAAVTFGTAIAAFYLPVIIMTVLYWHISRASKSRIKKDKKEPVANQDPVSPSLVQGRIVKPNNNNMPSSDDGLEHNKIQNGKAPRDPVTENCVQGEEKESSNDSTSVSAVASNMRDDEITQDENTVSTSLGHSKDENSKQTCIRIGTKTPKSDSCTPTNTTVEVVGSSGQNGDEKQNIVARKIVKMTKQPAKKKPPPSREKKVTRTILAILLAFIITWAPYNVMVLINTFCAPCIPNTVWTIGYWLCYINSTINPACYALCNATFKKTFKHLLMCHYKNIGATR

[4] = biological target: T3, 5-HT1B (Homo sapiens, UniProt P28222); assay: 5-HT1B cAMP HTRF assay (agonist test, Euroscreen FAST-0501C); type: cell-based
T3 construct: host or cells: CHO-K1
Method: (§2) A. In vitro 5-HT1A/B Activity Measurements: 5-HT1A/B cAMP HTRF assay (performed at Euroscreen, order no.: 5-HT1A:FAST-0500C, 5-HT1B: FAST-0501 C)
(§3) CHO-K1 cells expressing each human recombinant receptor (see Table 1) grown prior to the test in media without antibiotic were detached by gentle flushing with PBS-EDTA, recovered by centrifugation and resuspended in assay buffer. Dose response curves are performed in parallel with the reference compounds.
(§4) For agonist tests (96well): 12 µl of cells were mixed with 6 µl of the test compound at increasing concentrations and 6 µl of forskolin then incubated 30 min at room temperature. After addition of the lysis buffer and 1 hour incubation, cAMP concentrations were estimated, according to the manufacturer specification, with the HTRF kit (Cisbio).
Assay buffer consisted of: 5 mM KCI, 1.25 mM MgSO4, 124 mM NaCl, 25 mM HEPES, 13.3 mM Glucose, 1.25 mM KH2PO4, 1.45 mM CaCl2, and 0.5 g/I BSA. PBS-EDTA contained 137 mM NaCl, 2.7 mM KCI, 10 mM Na2HPO4, 2 mM KH2PO4 and 5 mM EDTA. Cell lines used were derived from CHO-K1 stably expressing the human receptors needed for the pharmacological testing (see Table 1). 5-Carboxamidotryptamine (5-CT) was used as reference agonist.
On each day of experimentation, reference compounds were tested at several concentrations in duplicate (n=2) to obtain a dose-response curve and an estimated EC50 value.
Reference values thus obtained for the test were compared to historical values obtained from the same receptor and used to validate the experimental session. […] For replicate determinations, the maximum variability tolerated in the test was of +/-20% around the average of the replicates.
as §1
(§5) Agonist activity of test compounds is expressed as a percentage of the activity of the reference agonist at a saturating concentration.

[5] = tested on: NMDA receptor; conditions: cited from earlier work
[6] = biological target: Muscarinic acetylcholine receptors M3 (Homo sapiens, UniProt P20309); conditions: cited from earlier work
[7] = biological target: T4, Muscarinic acetylcholine receptors M1 (Homo sapiens, UniProt P11229); conditions: cited from earlier work
T4 sequence (P11229 1-460): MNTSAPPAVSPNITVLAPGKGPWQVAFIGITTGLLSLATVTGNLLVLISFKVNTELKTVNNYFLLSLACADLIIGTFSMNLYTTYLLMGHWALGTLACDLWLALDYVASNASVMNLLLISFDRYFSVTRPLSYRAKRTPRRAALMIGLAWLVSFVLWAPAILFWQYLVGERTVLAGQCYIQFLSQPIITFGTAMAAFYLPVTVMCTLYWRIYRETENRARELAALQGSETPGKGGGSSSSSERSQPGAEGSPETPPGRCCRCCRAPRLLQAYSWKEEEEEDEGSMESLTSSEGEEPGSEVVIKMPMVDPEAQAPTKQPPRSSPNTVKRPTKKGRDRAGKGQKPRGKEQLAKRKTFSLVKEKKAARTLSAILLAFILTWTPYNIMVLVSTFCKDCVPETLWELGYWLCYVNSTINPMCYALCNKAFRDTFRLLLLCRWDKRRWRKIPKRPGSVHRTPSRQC

[8] = biological target: T5, MAO-B (Homo sapiens, UniProt P27338); conditions: cited from earlier work
T5 sequence (P27338 1-520): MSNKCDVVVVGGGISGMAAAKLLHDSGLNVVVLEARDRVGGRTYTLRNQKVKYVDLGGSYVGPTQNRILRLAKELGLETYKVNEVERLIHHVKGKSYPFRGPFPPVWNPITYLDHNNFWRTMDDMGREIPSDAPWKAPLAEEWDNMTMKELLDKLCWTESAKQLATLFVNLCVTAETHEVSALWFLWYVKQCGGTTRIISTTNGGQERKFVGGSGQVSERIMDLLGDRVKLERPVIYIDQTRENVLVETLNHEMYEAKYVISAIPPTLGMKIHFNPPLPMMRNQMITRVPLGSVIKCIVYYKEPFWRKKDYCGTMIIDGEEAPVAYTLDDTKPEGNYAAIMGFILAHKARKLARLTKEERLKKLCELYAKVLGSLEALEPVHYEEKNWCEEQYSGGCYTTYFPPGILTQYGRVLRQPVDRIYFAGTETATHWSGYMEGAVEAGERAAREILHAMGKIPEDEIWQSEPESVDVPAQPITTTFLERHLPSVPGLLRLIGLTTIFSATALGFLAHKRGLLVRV

[9] = biological target: T6, MAO-A (Homo sapiens, UniProt P21397); conditions: cited from earlier work
T6 sequence (P21397 1-527): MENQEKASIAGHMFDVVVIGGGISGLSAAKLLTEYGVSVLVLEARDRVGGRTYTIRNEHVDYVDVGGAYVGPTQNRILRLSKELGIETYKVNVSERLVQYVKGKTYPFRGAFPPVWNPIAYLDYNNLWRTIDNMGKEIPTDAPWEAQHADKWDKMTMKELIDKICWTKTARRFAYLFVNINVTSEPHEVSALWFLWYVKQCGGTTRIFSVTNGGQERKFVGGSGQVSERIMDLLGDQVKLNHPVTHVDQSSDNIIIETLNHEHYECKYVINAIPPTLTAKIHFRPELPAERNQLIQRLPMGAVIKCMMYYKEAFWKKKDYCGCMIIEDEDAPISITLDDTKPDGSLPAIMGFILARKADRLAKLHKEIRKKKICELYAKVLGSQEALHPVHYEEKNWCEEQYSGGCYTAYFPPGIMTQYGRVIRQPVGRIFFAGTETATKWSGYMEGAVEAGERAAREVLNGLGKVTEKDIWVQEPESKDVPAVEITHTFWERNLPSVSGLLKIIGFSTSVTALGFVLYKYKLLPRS

[10] = biological target: T7, 5-HT1A (Homo sapiens, UniProt P08908); assay: 5-HT1A cAMP HTRF assay (agonist test, Euroscreen FAST-0500C); type: cell-based
T7 construct: host or cells: CHO-K1
T7 sequence (P08908 1-422): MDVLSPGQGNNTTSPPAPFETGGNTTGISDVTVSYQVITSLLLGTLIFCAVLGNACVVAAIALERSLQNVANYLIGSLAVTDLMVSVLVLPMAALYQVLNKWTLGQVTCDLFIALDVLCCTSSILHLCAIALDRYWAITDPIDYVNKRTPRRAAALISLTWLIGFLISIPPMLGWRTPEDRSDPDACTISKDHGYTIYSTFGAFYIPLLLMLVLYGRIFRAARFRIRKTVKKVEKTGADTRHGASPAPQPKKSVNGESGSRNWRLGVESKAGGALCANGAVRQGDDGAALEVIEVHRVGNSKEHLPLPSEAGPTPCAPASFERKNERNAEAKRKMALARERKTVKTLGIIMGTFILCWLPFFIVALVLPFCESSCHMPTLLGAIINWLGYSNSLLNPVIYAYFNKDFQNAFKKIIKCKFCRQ
Method: as §2, §3, §4
Assay buffer consisted of: 5 mM KCI, 1.25 mM MgSO4, 124 mM NaCl, 25 mM HEPES, 13.3 mM Glucose, 1.25 mM KH2PO4, 1.45 mM CaCl2, and 0.5 g/I BSA. PBS-EDTA contained 137 mM NaCl, 2.7 mM KCI, 10 mM Na2HPO4, 2 mM KH2PO4 and 5 mM EDTA. […]
as §1, §5

[11] = cited from earlier work

T3 sequence (P28222 whole entry): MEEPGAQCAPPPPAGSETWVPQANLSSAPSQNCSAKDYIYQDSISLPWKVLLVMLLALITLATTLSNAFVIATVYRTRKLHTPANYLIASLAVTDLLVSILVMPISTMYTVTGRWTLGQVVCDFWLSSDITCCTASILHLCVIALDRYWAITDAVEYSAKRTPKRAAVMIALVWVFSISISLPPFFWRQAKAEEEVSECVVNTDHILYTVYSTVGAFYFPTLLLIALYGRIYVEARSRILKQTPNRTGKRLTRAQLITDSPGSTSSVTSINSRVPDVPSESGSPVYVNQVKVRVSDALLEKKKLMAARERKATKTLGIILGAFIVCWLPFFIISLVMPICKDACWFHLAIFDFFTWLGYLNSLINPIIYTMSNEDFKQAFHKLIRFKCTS
T1 sequence (P41595 whole entry): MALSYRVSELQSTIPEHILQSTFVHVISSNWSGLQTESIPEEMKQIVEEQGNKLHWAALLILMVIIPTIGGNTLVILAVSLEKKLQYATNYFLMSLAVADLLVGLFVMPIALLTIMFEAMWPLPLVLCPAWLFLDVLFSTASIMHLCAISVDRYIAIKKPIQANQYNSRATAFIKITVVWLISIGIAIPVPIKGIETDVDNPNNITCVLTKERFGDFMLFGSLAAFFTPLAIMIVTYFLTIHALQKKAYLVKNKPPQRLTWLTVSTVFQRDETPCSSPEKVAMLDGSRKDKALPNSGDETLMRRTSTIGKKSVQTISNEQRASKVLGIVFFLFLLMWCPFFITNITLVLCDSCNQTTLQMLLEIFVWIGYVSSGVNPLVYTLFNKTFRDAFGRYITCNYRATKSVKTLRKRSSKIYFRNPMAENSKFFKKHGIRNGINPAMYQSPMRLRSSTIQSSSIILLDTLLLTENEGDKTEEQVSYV
Sequence of Muscarinic acetylcholine receptors M3 (P20309 whole entry): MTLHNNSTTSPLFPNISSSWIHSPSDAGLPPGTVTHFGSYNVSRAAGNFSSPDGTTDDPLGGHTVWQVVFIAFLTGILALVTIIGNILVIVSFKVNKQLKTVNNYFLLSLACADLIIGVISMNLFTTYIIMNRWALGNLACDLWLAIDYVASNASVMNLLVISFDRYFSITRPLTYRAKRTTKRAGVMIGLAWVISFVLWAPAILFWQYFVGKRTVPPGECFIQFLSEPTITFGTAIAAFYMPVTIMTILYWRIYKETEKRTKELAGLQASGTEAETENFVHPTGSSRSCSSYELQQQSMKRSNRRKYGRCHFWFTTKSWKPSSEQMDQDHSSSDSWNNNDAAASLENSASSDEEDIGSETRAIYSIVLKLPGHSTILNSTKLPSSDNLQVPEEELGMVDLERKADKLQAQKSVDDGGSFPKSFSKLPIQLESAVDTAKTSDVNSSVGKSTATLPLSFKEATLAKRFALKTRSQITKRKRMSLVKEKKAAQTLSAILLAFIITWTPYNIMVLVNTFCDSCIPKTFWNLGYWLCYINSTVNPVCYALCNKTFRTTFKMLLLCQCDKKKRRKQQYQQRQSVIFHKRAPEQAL

SMILES | reduction of LID [1] | IC50 [2] | activity at Muscarinic acetylcholine receptor M2 [3] | Emax ([4]; 0.5 h, CHO-K1 cells, human recombinant receptor, percentage of the activity of reference agonist 5-CT at saturating concentration, read-out: partial agonism, efficacy at 5-HT1B) | EC50 ([4]; CHO-K1 cells, human recombinant receptor, cAMP with forskolin, read-out: partial agonism at 5-HT1B (potency)) | action at the 5-HT1B receptor ([4]; human recombinant cell lines) | activity at NMDA receptor [5] | effect on LID (AIM scores) ([1]; 10 mg/kg p.o., 10 min before L-DOPA/benserazide 6/15 mg/kg i.p.) | activity at Muscarinic acetylcholine receptor M3 [6] | activity at Muscarinic acetylcholine receptor M1 [7] | activity at MAO-B [8] | activity at MAO-A [9] | EC50 [10] | Emax ([10]; 0.5 h, CHO-K1 cells, human recombinant receptor, percentage of the activity of reference agonist 5-CT at saturating concentration, read-out: partial agonism, efficacy at 5-HT1A) | adverse events in Phase 1 studies [11]
NC12CC3CC(CC(C3)C1)C2 [Amantadine] | -25% |  |  |  |  |  |  |  |  |  |  |  |  |  | 
COc1cccc2c1CCC(=O)N2CCCN1CCN(c2cccc(Cl)c2)CC1 [OPC-14523, 1-[3-[4-(3-Chlorophenyl)piperazin-1-yl]propyl]-5-methoxy-1,2,3,4-tetrahydroquinolin-2-one] |  | 160 nM | inactive | ~60% | 7 nM | partial agonist | inactive | strongly reduced LID | inactive | inactive | inactive | inactive | 26 nM | ~60% | no adverse events
c1cc2c(c(N3CCNCC3)c1)OCCO2 [Eltoprazine] | -60% |  |  |  |  |  |  |  |  |  |  |  |  |  | 
